For this assay, the target named is T1, influenza A virus (IAV) PA-Nter fragment (amino acids 1-209) (Influenza A virus, UniProt P31343).
T1 construct: PA-Nter fragment (amino acids 1-209); made in house
Briefly: FRET endonuclease activity assay. The class given is biochemical. As to conditions: 0.5 μM PA-Nter, 1.6 μM dual-labelled RNA substrate; IC50 from initial reaction velocities (v0).
Broadly, the IC50 is the concentration that inhibits the measured activity by half. A lower IC50 goes with inhibition by little substance. Molecule `CC(C)N1CCn2c(Cc3ccc(Cl)cc3-c3cccc(F)c3)nc(=O)c(O)c2C1=O` displayed an IC50 of 58 nM.

Consider `CC(C)N1CCn2c(Cc3c(Cl)cccc3Cl)nc(=O)c(O)c2C1=O` [drawing 10], for which half-maximal inhibition (IC50) was put at 392 nM.

Take `CC(C)N1CCn2c(Cc3c(Cl)cccc3Cl)nc(=O)c(O)c2C1=O` [drawing 18]: the IC50 was 390 nM.

In turn, `O=C1NCCn2c(CC3(c4cccc5ccccc45)CCCC3)nc(=O)c(O)c21` [drawing 712] showed an IC50 of 162 nM.

The molecule `O=C1NCCn2c(CC3(c4cccc5ccccc45)CCCC3)nc(=O)c(O)c21` [drawing 722] showed an IC50 of 160 nM.

Values taken from patent US9045486B2, “Pyrimidone derivatives and their use in the treatment, amelioration or prevention of a viral disease” (priority 2013, dated 2015).
